Data reported in PMC8720286 (Chemical biology & drug design, 2020).
Converted amounts (≈) assume the structure as drawn.

Tests used:
Mtb V4207/DS = test: microbe, parasite or virus in culture; assay type: cell-based; settings: Mycobacterium tuberculosis, read-out: Mtb MIC V4207/DS
Mtb KZN494/MDR = test: microbe, parasite or virus in culture; assay type: cell-based, Mycobacterium tuberculosis; settings: relative to H37Rv MIC
in vitro [1] = assay type: cell-based; settings: African green monkey
Vero cells = test: in vitro; assay type: cell-based; settings: IC50 (Vero)/MIC
clinical isolates of Mtb = assay type: cell-based, Mycobacterium tuberculosis; settings: for MIC range against MDR and XDR strains of TB: range over both compounds and strains; for fold drop in activity against the tested clinical isolates of Mtb: relative to H37Rv MIC
Mtb H37Rv = test: MIC determination by microplate AlamarBlue assay; settings: for Mtb MIC H37Rv/DS: Table 2, H37Rv drug-sensitive; for anti-TB activity in words: susceptible strain of Mtb, SAR discussion; for fold more potent against M.tb than counterparts 3 - 5 with no carbon spacer: 9 vs 3, 10 vs 4, 11 vs 5
in vitro [2] = assay type: in vitro ADME; settings: human, plasma
in vitro [3] = assay type: in vitro ADME; settings: mouse, plasma
CYP1A2 = molecular target: T1, CYP1A2 (Homo sapiens, UniProt P05177); test: CYP inhibition, CYP1A2; assay type: in vitro ADME
T1 sequence (P05177 1-516): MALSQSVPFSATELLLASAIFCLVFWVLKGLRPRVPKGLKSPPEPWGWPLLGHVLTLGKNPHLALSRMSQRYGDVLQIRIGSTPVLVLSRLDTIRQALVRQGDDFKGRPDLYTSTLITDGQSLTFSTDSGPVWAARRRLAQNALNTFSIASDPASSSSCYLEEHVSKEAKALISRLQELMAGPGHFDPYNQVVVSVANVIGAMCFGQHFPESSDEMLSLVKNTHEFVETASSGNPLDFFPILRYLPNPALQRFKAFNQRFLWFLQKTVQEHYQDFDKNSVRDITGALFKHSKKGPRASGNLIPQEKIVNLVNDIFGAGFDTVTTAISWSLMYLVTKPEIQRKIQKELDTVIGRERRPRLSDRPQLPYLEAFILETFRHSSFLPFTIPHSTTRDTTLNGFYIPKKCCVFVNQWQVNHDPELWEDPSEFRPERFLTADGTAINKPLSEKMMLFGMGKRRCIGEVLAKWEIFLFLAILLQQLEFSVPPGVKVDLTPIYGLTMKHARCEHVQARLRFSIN

CYP2C9 = CYP2C9 (Homo sapiens, UniProt P11712); test: CYP inhibition, CYP2C9; assay type: in vitro ADME
Chain of CYP2C9 (P11712 whole entry): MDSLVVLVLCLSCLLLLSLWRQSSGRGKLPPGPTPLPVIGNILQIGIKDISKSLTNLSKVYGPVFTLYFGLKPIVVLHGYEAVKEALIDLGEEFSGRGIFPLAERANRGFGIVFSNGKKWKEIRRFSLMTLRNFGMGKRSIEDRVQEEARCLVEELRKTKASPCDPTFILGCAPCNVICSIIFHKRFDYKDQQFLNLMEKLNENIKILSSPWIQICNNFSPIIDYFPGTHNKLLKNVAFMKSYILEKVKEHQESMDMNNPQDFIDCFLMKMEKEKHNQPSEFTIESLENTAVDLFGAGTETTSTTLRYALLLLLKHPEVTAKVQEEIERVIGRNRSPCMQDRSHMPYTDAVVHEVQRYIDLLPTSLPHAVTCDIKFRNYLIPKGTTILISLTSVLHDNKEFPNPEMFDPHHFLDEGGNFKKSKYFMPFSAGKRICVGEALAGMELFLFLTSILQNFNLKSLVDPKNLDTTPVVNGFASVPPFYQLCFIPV

CYP2C19 = CYP2C19 (Homo sapiens, UniProt P33261); test: CYP inhibition, CYP2C19; assay type: in vitro ADME
Chain of CYP2C19 (P33261 whole entry): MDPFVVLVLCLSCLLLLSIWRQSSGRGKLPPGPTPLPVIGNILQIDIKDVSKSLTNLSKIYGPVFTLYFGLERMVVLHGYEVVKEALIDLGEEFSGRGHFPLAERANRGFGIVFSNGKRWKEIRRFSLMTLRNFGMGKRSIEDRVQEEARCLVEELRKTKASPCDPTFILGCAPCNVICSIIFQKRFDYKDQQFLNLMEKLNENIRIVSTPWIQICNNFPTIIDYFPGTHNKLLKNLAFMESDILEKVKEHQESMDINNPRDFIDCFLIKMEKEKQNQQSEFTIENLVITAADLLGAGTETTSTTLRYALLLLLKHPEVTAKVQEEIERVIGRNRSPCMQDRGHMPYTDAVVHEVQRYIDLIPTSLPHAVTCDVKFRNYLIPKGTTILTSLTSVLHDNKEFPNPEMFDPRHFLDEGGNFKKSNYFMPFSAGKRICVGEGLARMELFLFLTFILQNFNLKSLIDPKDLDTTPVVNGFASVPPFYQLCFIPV

CYP2D6 = CYP2D6 (Homo sapiens, UniProt P10635); test: CYP inhibition, CYP2D6; assay type: in vitro ADME
Chain of CYP2D6 (P10635 whole entry): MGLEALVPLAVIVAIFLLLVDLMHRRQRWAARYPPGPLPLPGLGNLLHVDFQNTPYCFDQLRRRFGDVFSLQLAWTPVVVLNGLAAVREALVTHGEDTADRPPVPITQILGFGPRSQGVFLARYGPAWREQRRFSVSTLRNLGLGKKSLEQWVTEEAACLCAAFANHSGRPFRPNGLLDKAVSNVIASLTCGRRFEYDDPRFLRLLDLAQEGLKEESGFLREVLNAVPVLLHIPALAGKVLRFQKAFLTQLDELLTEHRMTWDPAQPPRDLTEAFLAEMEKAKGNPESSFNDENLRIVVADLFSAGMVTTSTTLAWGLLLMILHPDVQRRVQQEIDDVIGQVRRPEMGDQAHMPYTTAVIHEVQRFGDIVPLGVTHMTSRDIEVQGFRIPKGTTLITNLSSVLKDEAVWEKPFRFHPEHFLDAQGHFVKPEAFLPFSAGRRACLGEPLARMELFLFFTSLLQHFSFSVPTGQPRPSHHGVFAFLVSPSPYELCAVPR

CYP3A4 = CYP3A4 (Homo sapiens, UniProt P08684); test: CYP inhibition, CYP3A4; assay type: in vitro ADME; settings: probe midazolam
Chain of CYP3A4 (P08684 whole entry): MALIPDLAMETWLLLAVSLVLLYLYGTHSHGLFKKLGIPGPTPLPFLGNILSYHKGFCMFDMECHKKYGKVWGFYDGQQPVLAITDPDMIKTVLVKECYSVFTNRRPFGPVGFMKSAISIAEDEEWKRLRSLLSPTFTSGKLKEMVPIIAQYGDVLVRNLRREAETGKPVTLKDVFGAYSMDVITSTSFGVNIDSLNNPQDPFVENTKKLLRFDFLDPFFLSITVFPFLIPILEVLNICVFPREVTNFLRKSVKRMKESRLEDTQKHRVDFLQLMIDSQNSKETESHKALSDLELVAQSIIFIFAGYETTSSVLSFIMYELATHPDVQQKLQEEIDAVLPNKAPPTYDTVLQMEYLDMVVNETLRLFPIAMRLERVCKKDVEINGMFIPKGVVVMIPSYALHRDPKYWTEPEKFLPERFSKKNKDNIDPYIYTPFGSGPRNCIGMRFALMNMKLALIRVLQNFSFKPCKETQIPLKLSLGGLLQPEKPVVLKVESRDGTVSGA

hERG = hERG (Homo sapiens, UniProt Q12809); test: hERG channel inhibition, manual patch-clamp; assay type: cell-based; settings: human
Chain of hERG (Q12809 whole entry): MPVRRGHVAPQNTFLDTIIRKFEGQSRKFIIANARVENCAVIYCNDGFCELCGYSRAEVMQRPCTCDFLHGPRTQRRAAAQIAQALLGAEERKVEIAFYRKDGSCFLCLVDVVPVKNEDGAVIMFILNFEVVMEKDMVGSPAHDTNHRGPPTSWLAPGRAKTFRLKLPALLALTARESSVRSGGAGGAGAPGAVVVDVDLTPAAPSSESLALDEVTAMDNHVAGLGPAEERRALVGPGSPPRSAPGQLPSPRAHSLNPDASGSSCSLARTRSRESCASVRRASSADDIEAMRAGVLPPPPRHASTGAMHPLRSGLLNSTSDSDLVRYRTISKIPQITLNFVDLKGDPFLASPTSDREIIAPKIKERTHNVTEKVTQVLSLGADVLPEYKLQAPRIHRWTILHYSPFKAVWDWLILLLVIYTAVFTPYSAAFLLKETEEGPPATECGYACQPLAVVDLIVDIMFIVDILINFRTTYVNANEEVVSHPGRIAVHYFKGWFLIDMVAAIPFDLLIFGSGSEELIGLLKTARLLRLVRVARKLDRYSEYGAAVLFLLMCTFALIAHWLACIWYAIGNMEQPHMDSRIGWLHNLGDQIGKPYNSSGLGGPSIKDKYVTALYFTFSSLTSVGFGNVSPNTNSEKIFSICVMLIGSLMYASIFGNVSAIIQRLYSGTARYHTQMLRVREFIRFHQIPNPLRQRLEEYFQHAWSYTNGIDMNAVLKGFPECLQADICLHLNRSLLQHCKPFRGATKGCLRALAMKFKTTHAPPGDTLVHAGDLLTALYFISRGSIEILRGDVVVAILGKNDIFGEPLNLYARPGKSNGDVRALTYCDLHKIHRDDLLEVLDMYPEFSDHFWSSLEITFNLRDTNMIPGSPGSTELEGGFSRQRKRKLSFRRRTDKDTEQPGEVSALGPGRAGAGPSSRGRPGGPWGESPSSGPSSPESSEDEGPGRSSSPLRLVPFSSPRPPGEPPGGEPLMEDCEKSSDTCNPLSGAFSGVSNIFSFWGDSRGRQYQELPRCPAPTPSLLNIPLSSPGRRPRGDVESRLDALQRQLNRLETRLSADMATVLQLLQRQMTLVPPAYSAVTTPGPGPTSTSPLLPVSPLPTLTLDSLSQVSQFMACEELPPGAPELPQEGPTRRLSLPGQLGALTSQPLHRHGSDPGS

[4] = molecular target: human Ether-à-go-go related gene (hERG) channel (Homo sapiens, UniProt Q12809); test: hERG channel inhibition, manual patch-clamp; assay type: cell-based
Chain of human Ether-à-go-go related gene (hERG) channel (Q12809 whole entry): as above

in vitro [5] = assay type: in vitro ADME
in vitro [6] = assay type: in vitro ADME; settings: human, microsomes, Liver microsomes, % remaining after 1 hr (human)
in vitro [7] = assay type: in vitro ADME; settings: mouse, microsomes, Liver microsomes, % remaining after 1 hr (mouse)

Cc1ccc2nc(C)c(C(=O)NCCCC3CCCCC3)n2c1 [Compound 15, N-(3-cyclohexylpropyl)-2,6-dimethylimidazo[1,2-a]pyridine-3-carboxamide]
MIC (Mtb V4207/DS): 0.1 µM (≈ 0.0313 µg/mL)
fold increase in activity against MDR Mtb strain KZN494 (Mtb KZN494/MDR): 2 fold
IC50 at 72 h (in vitro [1]): 102 µM
SI, Selectivity index = IC50 (Vero)/MIC (Vero cells): 1024
MIC range against MDR and XDR strains of TB (clinical isolates of Mtb): 0.05 to 1.5 µM
fold drop in activity against the tested clinical isolates of Mtb (clinical isolates of Mtb): up to 2 fold
fold more active than isoniazid against H37Rv (Mtb H37Rv; ratio of MIC): 1.5 - 3 fold
Mtb MIC H37Rv/DS (Mtb H37Rv): 0.10 µM
fold more active than compounds 9 and 13 (Mtb H37Rv; ratio of MIC): 4 fold

O=C(NCCCC1CCCCC1)c1c(-c2ccccc2)nc2cc(Cl)ccn12 [Compound 17, 7-chloro-N-(3-cyclohexylpropyl)-2-phenylimidazo[1,2-a]pyridine-3-carboxamide]
anti-TB activity in words (Mtb H37Rv): complete loss in activity

Cc1ccc2nc(C)c(C(=O)NCC3CCCCCC3)n2c1 [Compound 10, N-(cycloheptylmethyl)-2,6-dimethylimidazo[1,2-a]pyridine-3-carboxamide]
fold more potent against M.tb than counterparts 3 - 5 with no carbon spacer (Mtb H37Rv; ratio of MIC): 133 fold

Cc1ccc2nc(C)c(C(=O)NCC3CCCCCCC3)n2c1 [Compound 11, N-(cyclooctylmethyl)-2,6-dimethylimidazo[1,2-a]pyridine-3-carboxamide]
fold more potent against M.tb than counterparts 3 - 5 with no carbon spacer (Mtb H37Rv; ratio of MIC): 133 fold

O=C(NCCCC1CCCCC1)c1cn2ccc(Cl)cc2n1 [Compound 19, 7-chloro-N-(3-cyclohexylpropyl)imidazo[1,2-a]pyridine-2-carboxamide]
anti-TB activity in words (Mtb H37Rv): less active

O=C(NC1CCCCCCC1)c1cn2ccc(Cl)cc2n1 [Compound 18, 7-chloro-N-cyclooctylimidazo[1,2-a]pyridine-2-carboxamide]
anti-TB activity in words (Mtb H37Rv): less active

Cc1nc2ccc(Cl)cn2c1C(=O)NCCCC1CCCCC1 [Compound 16, 6-chloro-N-(3-cyclohexylpropyl)-2-methylimidazo[1,2-a]pyridine-3-carboxamide]
MIC (Mtb V4207/DS): 0.37 µM (≈ 0.124 µg/mL)
fold increase in activity against MDR Mtb strain KZN494 (Mtb KZN494/MDR): 2 fold
IC50 at 72 h (in vitro [1]): ≥ 192 µM
SI, Selectivity index = IC50 (Vero)/MIC (Vero cells): ≥1024
fraction unbound (in vitro [2]): 0.0011
fraction unbound (in vitro [3]): 0.0036
inhibition at 10 µM (CYP1A2): 26.3%
inhibition at 10 µM (CYP2C9): 32.2%
inhibition at 10 µM (CYP2C19): 45.2%
inhibition at 10 µM (CYP2D6): 16.4%
inhibition at 10 µM (CYP3A4): 52.2%
inhibition at 10 µM (hERG): 29.1%
IC50 [4]: > 10 µM
% degraded after 2 hours incubation with human hepatocyte (in vitro [5]; 2 h, 1 μM): over 95%
remaining at 2 h, 1 μM (in vitro [5]; human, hepatocytes): 0.19%
remaining at 1 h, 1 μM (in vitro [6]): ~1.5%
remaining at 1 h, 1 μM (in vitro [7]): ~0.15%
MIC range against MDR and XDR strains of TB (clinical isolates of Mtb): 0.05 to 1.5 µM
fold drop in activity against the tested clinical isolates of Mtb (clinical isolates of Mtb): up to 8 fold
fold more active than isoniazid against H37Rv (Mtb H37Rv; ratio of MIC): 1.5 - 3 fold
Mtb MIC H37Rv/DS (Mtb H37Rv): 0.19 µM
fold drop in activity relative to compound 15 (Mtb H37Rv; ratio of MIC): approximately 2 fold

Cc1ccc2nc(C)c(C(=O)NCC3CCCCC3)n2c1 [Compound 9, N-(cyclohexylmethyl)-2,6-dimethylimidazo[1,2-a]pyridine-3-carboxamide]
fold more potent against M.tb than counterparts 3 - 5 with no carbon spacer (Mtb H37Rv; ratio of MIC): 267 fold

Cc1ccc2nc(C)c(C(=O)NCC34CC5CC(CC(C5)C3)C4)n2c1 [Compound 12, N-(adamantan-1-ylmethyl)-2,6-dimethylimidazo[1,2-a]pyridine-3-carboxamide]
anti-TB activity in words (Mtb H37Rv): poor anti-TB activity
